For 56 molecules, EC50 results are on record in US7816408B2, “Calcium receptor active compounds” (NPS Pharmaceuticals, Inc., priority 2002, dated 2010).

The experiment addresses T1, human calcium receptor (Homo sapiens, UniProt P41180).
T1 construct: expressed in transfected cells; host or cells: HEK293
T1 sequence (P41180 20-1078): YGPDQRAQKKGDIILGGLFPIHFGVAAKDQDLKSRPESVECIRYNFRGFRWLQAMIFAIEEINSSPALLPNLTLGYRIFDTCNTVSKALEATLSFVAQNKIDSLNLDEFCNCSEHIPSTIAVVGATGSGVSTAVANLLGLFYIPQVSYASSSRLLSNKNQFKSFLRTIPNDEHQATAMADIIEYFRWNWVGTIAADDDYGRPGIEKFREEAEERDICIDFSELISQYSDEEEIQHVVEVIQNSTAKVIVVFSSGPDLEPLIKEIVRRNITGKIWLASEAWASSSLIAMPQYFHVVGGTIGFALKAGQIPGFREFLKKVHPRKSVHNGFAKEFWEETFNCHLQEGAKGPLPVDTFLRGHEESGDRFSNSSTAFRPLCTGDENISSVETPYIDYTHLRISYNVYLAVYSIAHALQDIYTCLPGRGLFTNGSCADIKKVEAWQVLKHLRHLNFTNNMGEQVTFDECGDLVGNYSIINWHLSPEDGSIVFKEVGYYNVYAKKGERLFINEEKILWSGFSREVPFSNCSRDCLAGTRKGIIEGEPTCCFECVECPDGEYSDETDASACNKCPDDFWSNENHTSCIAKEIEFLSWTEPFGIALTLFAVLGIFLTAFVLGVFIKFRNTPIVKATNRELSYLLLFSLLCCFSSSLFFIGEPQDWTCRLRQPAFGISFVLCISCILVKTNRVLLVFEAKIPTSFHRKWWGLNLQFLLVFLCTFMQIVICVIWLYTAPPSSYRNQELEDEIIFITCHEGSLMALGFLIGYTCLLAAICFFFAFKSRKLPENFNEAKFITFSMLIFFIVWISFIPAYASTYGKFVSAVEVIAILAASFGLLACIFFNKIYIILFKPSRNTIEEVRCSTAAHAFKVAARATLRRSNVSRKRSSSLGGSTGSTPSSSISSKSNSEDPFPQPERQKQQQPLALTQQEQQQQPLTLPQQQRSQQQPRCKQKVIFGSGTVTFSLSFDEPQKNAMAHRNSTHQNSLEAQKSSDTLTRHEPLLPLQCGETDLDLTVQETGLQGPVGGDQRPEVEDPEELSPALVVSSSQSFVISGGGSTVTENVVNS
Description: Activity on calcium receptors: fluo-3 fluorescence in HEK293 cells transfected with human calcium receptor gene. Type of experiment: cell-based. The following applies: HEK293 cells transfected with plasmid pHuPCaR4.0 (human calcium receptor gene), loaded with fluo-3; 1 mM CaCl2, 1 mM MgCl2. Here is the method:
The activities of the compounds of the present invention on calcium receptors were measured. The measurement was performed in accordance with the method described in Example 4 of Nemeth et al., PCT/US95/13704 (International Publication No. WO96/12697). In brief, HEK293 cells were transfected with a plasmid pHuPCaR4.0 containing a human calcium receptor gene and loaded with fluo-3. The loading was carried out by incubating the cells at 37° C. for 1 hour in Dulbecco's modified Eagle's medium which contained about 5 μM of fluo-3/AM and had been buffered with 20 mM HEPES. Next, the cells were rinsed with Hank's balanced salt solution which contained 1 mM CaCl2 and 1 mM MgCl2 and had been buffered with 20 mM HEPES. Then each test compound was added to the cells and the fluorescence was measured with the use of an excitation wavelength of 485 nm and an emission wavelength of 540 nm.

One may read the EC50 as the concentration that produces a half-maximal response.

On to `CC(NCCCOc1ccc2[nH]ccc2c1)c1cccc2ccccc12` (centres unmarked) [Compound 112], for which the EC50 stood at 78 nM. Then `COc1cccc(C(C)NCCCOc2ccc(Br)cc2)c1` (centres unmarked) [Compound K-2003], with 290 nM; and `COc1cccc(C(C)NCCCCOc2ccc(Br)cc2)c1` (centres unmarked) [Compound K-2004], with 420 nM; and `COc1cccc(C(C)NCCCCCOc2ccc(Br)cc2)c1` (centres unmarked) [Compound K-2005], with 430 nM. Then `COc1cccc(C(C)NCCCCCCOc2ccc(Br)cc2)c1` (centres unmarked) [Compound K-2006], with 770 nM. Then `COc1cccc([C@@H](C)NCCCCCCCOc2ccc(Br)cc2)c1` [Compound K-2007], with 470 nM. For `COc1cccc(C(C)NCCSc2cccc(C(F)(F)F)c2)c1` (centres unmarked) [Compound K-2008], the EC50 amounted to 860 nM. Then `COc1cccc(C(C)NCCCCSc2cccc(C(F)(F)F)c2)c1` (centres unmarked) [Compound K-2010], with 140 nM; and `COc1cccc([C@@H](C)NCCCCCSc2cccc(C(F)(F)F)c2)c1` [Compound K-2011], with 210 nM; and `COc1cccc(C(C)NCCCCCCSc2cccc(C(F)(F)F)c2)c1` (centres unmarked) [Compound K-2012], with 870 nM. `COc1cccc(C(C)NCCSc2ccccc2Br)c1` (centres unmarked) [Compound K-2015]: the EC50 was found to be 490 nM. Turning to `COc1cccc(C(C)NCCCSc2ccccc2Br)c1` (centres unmarked) [Compound K-2016], the EC50 was found to be 360 nM. For `COc1cccc(C(C)NCCCCSc2ccccc2Br)c1` (centres unmarked) [Compound K-2017], the 50% effective concentration (EC50) worked out at 360 nM. Regarding `COc1cccc(C(C)NCCCCCSc2ccccc2Br)c1` (centres unmarked) [Compound K-2018], the EC50 was found to be 330 nM. Then `CC(NCCOc1cccc(Cl)c1)c1cccc2ccccc12` (centres unmarked) [Compound K-2030], with 49 nM. As for `COc1cccc(C(C)NCCCCSc2ccc([N+](=O)[O-])cc2)c1` (centres unmarked) [Compound K-2033], the EC50 came to 350 nM.

In the case of `COc1cccc(C(C)NCCCCCSc2ccc([N+](=O)[O-])cc2)c1` (centres unmarked) [Compound K-2034], the EC50 is 61 nM.

For `COc1cccc(C(C)NCCCCCCSc2ccc([N+](=O)[O-])cc2)c1` (centres unmarked) [Compound K-2035], the EC50 came out at 220 nM. Consider `COc1cccc(C(C)NCCCCSc2ccc(F)cc2)c1` (centres unmarked) [Compound K-2040], for which the EC50 stood at 80 nM. As to `COc1cccc(C(C)NCCCCCSc2ccc(F)cc2)c1` (centres unmarked) [Compound K-2041], the EC50 worked out at 100 nM.

With `COc1cccc(C(C)NCCSc2cccc(Br)c2)c1` (centres unmarked) [Compound K-2045], the EC50 came to 870 nM. Take `COc1cccc(C(C)NCCCSc2cccc(Br)c2)c1` (centres unmarked) [Compound K-2046]: the EC50 amounted to 140 nM. Then `COc1cccc(C(C)NCCCCSc2cccc(Br)c2)c1` (centres unmarked) [Compound K-2047], with 130 nM. Consider `COc1cccc(C(C)NCCCCCSc2cccc(Br)c2)c1` (centres unmarked) [Compound K-2048], for which the EC50 is 730 nM. Then `COc1cccc(C(C)NCCCCCCSc2cccc(Br)c2)c1` (centres unmarked) [Compound K-2049], with 830 nM. Regarding `COc1cccc(C(C)NCCCCCCCSc2cccc(Br)c2)c1` (centres unmarked) [Compound K-2050], the concentration for a half-maximal effect (EC50) stood at 550 nM. Turning to `COc1cccc(C(C)NCCCCCCCCSc2cccc(Br)c2)c1` (centres unmarked) [Compound K-2051], the EC50 was found to be 340 nM.

As for `COc1cccc(C(C)NCCCSc2ccc(C(F)(F)F)cc2)c1` (centres unmarked) [Compound K-2055], the EC50 worked out at 57 nM.

Regarding `COc1cccc(C(C)NCCCCSc2ccc(C(F)(F)F)cc2)c1` (centres unmarked) [Compound K-2056], the EC50 was determined as 39 nM. Then `COc1cccc([C@@H](C)NCCCCCSc2ccc(C(F)(F)F)cc2)c1` [Compound K-2057], with 410 nM; and `COc1cccc(C(C)NCCCCCCSc2ccc(C(F)(F)F)cc2)c1` (centres unmarked) [Compound K-2058], with 390 nM. Then `COc1cccc(C(C)NCCCCCCCSc2ccc(C(F)(F)F)cc2)c1` (centres unmarked) [Compound K-2059], with 270 nM; and `COc1cccc(C(C)NCCCSc2cccc(Cl)c2)c1` (centres unmarked) [Compound K-2061], with 150 nM.

As for `COc1cccc([C@@H](C)NCCSc2cc(Cl)ccc2Cl)c1` [Compound K-2066], the EC50 was 260 nM. `CC(NCCCCCSc1ccccc1Br)c1cccc2ccccc12` (centres unmarked) [Compound K-2075]: the EC50 turned out to be 140 nM. `C[C@@H](NCCCCCSc1ccc(C(F)(F)F)cc1)c1cccc2ccccc12` [Compound K-2076, N-[(1R)-1-(1-naphthyl)ethyl]-N-(5-{[4-(trifluoromethyl)phenyl]thio}pentyl)amine]: the EC50 is 6200 nM. Then `COc1cccc(C(C)NCCCSc2ccc(Cl)c(Cl)c2)c1` (centres unmarked) [Compound K-2078], with 170 nM; and `COc1cccc(C(C)NCCCCSc2ccc(Cl)c(Cl)c2)c1` (centres unmarked) [Compound K-2079], with 200 nM; and `COc1cccc(C(C)NCCCCCSc2ccc(Cl)c(Cl)c2)c1` (centres unmarked) [Compound K-2080], with 770 nM.

On to `COc1cccc(C(C)NCCCCCCCSc2ccc(Cl)c(Cl)c2)c1` (centres unmarked) [Compound K-2082], for which the EC50 amounted to 2810 nM. `COc1cccc(C(C)NCCCSc2c(Cl)cccc2Cl)c1` (centres unmarked) [Compound K-2084]: the EC50 amounted to 120 nM. In the case of `COc1cccc(C(C)NCCCCSc2c(Cl)cccc2Cl)c1` (centres unmarked) [Compound K-2085], the EC50 stood at 130 nM. For `C[C@@H](NCCSc1cc(Cl)ccc1Cl)c1cccc2ccccc12` [Compound K-2117, (R)-N-[1-(1′-naphthyl)ethyl]-2-(2′,5′-dichlorophenylthio)ethylamine], the EC50 turned out to be 43 nM. Then `CC(NCCC(=O)N(Cc1ccccc1)Cc1ccccc1)c1cccc2ccccc12` (centres unmarked) [Compound K-2177], with 75 nM; and `C[C@@H](NCCC(=O)N(Cc1ccc(Cl)cc1)Cc1ccc(Cl)cc1)c1cccc2ccccc12` [Compound K-2243, N1,N1-di(4-chlorobenzyl)-3-{[(1R)-1-(1-naphthyl)ethyl]amino}propanamide], with 92 nM. Then `C[C@@H](NCCCCSc1ccc(C(F)(F)F)cc1)c1cccc2ccccc12` [Compound K-2246, N-[(1R)-1-(1-naphthyl)ethyl]-N-(4-{[4-(trifluoromethyl)phenyl]thio}butyl)amine], with 120 nM. Then `C[C@@H](NCCC(=O)N(Cc1ccccc1)Cc1ccc2ccccc2c1)c1cccc2ccccc12` [Compound K-2248], with 78 nM.

As for `CC(NCCC(=O)N(Cc1ccccc1)Cc1ccccc1Cl)c1cccc2ccccc12` (centres unmarked) [Compound K-2249], the EC50 stood at 82 nM. With `CC(NCCC(=O)N(Cc1ccccc1)Cc1ccc(Cl)cc1Cl)c1cccc2ccccc12` (centres unmarked) [Compound K-2251], the 50% effective concentration (EC50) was found to be 51 nM. Then `C[C@@H](NCCC(=O)N(Cc1ccccc1)Cc1cccc(Cl)c1)c1cccc2ccccc12` [Compound K-2252], with 18 nM; and `CC(NCCC(=O)N(Cc1cccc(Cl)c1)Cc1cccc(Cl)c1)c1cccc2ccccc12` (centres unmarked) [Compound K-2253], with 190 nM. Then `CC(NCCC(=O)N(Cc1ccccc1Cl)Cc1ccccc1Cl)c1cccc2ccccc12` (centres unmarked) [Compound K-2254], with 88 nM.

Turning to `CC(NCCC(=O)N(Cc1ccc(F)cc1)Cc1ccc(F)cc1)c1cccc2ccccc12` (centres unmarked) [Compound K-2256], the EC50 amounted to 180 nM.

`C[C@@H](NCCC(=O)N(Cc1ccc(OC(F)(F)F)cc1)Cc1ccc(OC(F)(F)F)cc1)c1cccc2ccccc12` [Compound K-2257, N1,N1-di[4-(trifluoromethoxy)benzyl]-3-{[(1R)-1-(1-naphthyl)ethyl]amino}propanamide]: the concentration for a half-maximal effect (EC50) was determined as 39 nM. Then `C[C@@H](NCCC(=O)N(Cc1ccc(C(F)(F)F)cc1)Cc1ccc(C(F)(F)F)cc1)c1cccc2ccccc12` [Compound K-2259, N1,N1-di[4-(trifluoromethyl)benzyl]-3-{[(1R)-1-(1-naphthyl)ethyl]amino}propanamide], with 2.4 nM. Then `CC(NCCC(=O)N(Cc1ccc(Cl)cc1)Cc1cccc(Cl)c1)c1cccc2ccccc12` (centres unmarked) [Compound K-2261], with 26 nM.
